{
  "source": "patent US7563896B2",
  "about": "“Process of obtaining type II dehydroquinase enzyme inhibitors and precursors thereof” (Universidade de Santiago de Compostela, priority 2003, dated 2009)",
  "origin": "cited, not measured here",
  "key": {"EPSP synthase": {"molecular_target": "EPSP synthase", "conditions": "sixth enzyme of the shikimic acid pathway, read-out: inhibition constant"}},
  "data": [
    {"smiles": "O=C(O)CNCP(=O)(O)O", "note": "[Glyphosphate]", "values": [
      {"measurement": "Ki", "setting": "EPSP synthase", "value": "~1000", "unit": "nM"},
      {"measurement": "effectiveness against malaria", "setting": "malaria", "value": "effective"}
    ]}
  ]
}
